Source: US8859615B2, “Compounds, compositions and methods for reducing toxicity and treating or preventing diseases” (priority 2008, dated 2014)
pEC50, pIC50: −log10 of the molar value. Read-outs that look alike come from different tables or passages of the source.

Columns and labels:
[1] = system: AKR1C2 and AKR1C3 in human neuroblastoma IMR-32 cells; assay: Induction of AKR1C enzymes, coumberone metabolism (Tables 12, 13); details: for Fold induction of AKR1C2 and AKR1C3 in IMR-32 cells (result in words): inducer varied from 50 nM to 60 μM; for pEC50: IMR-32, read-out: EC50 of induction of AKR1C2 and AKR1C3 in IMR-32 cells
Experimental: (§1) Compounds were screened for AKR1C enzyme activity as set forth in Halim, M.; Yee, D. J. and Sames, D. J. Am. Chem. Soc. 2008, […], 14123-14128. […] Specifically, coumberone metabolism studies in IMR-32 can be done as follows: Early-passage (<P25) IMR-32 cells were seeded at a density of 4×10^4 cells/well in 96-well dish. They were then treated with the various inducers or DMSO vehicle (0.5% v/v) control. The concentration of each inducer was varied from 50 nM to 60 μM and the cells were incubated with these for either 24 or 48 hours. 72 hours after seeding, the media was removed and 100 μL of experimental media (DMEM without phenol red supplemented with 100 units/ml penicillin, 100 μg/ml streptomycin, 4 mM L-glutamine and 1% charcoal-dextran treated FBS) was added and incubated for 2 hrs. 100 μl more of the experimental media containing Coumberone (final concentration of 5 μM) was then added. The fluorescence of the cell culture medium was recorded on a plate reader MicroMax 384 connected to a Jobin Yvon Fluorolog by detecting fluorescence at 510 nm upon excitation at 385 nm. The reading was taken every 6 hours for 72 hours. Metabolic conversion rate was obtained by measuring the change in fluorescence per hour for the first 36 hours. The relative increase in metabolic rate was calculated by dividing the metabolic conversion rates of cells incubated with the activator compounds with those incubated with DMSO vehicle. […] Fold-induction is the increase metabolic activity of the reporter. […] “None” indicates no observed induction.
The IMR-32 induction assay was run as follows. Early-passage (<P25) IMR-32 cells were seeded at a density of 4×10^4 cells/well in 96-well dish. They were then treated with the various inducers or DMSO vehicle (0.5% v/v) control. The concentration of each inducer was varied from 50 nM to 60 μM and the cells were incubated with these for either 24 or 48 hours. 72 hours after seeding, the media was removed and 100 μL of experimental media (DMEM without phenol red supplemented with 100 units/ml penicillin, 100 μg/ml streptomycin, 4 mM L-glutamine and 1% charcoal-dextran treated FBS) was added and incubated for 2 hrs. 100 μl more of the experimental media containing Coumberone (final concentration of 5 μM) was then added. The fluorescence of the cell culture medium was recorded on a plate reader MicroMax 384 connected to a Jobin Yvon Fluorolog by detecting fluorescence at 510 nm upon excitation at 385 nm. The reading was taken every 6 hours for 72 hours. Metabolic conversion rate was obtained by measuring the change in fluorescence per hour for the first 36 hours. The relative increase in metabolic rate was calculated by dividing the metabolic conversion rates of cells incubated with the activator compounds with those incubated with DMSO vehicle. […] J. Am. Chem. Soc. 2008, 130, 14123-[…].

[2] = system: human neuroblastoma IMR-32 cells; assay: 50% toxicity in the IMR-32 induction assay (Table 12); format: cell-based
Experimental: as §1

[3] = system: CCRF-CEM human T-cell acute lymphoblastic leukemia cells; assay: In vitro cytotoxicity against CCRF-CEM (XTT / CCK-8 tetrazolium assay, 72 hr); details: Homo sapiens, CCRF-CEM, read-out: IC50 (μM) CCRF-CEM
Experimental: The cytotoxicity IC50 of each compound was measured with the XTT assay using the 2,3-bis(2-methoxy-4-nitro-5-sulfophenyl)-5-[(phenylamino)carbonyl]-2H-tetrazolium hydroxide (XTT) microculture method as described in Scudiero et al., Cancer Res., 48:4827 (1988), the contents of which are hereby incorporated by reference in their entirety. The CCK-8 assay is a cell counting kit-8 (CCK-8) tetrazolium assay using a 96-well microplate (Dojindo Molecular Technologies, Inc., Rockville, Md.) (M. Ishiyama et al., Biol. Pharm. Bull. 19: 1518, 1996). Absorbance was measured by Powerwave a XS microplate spectrophotometer. This method described is considered a general method in vitro cytotoxicity studies.
The data in Tables 2X, 3A-E, 4, 5, and 6 were obtained using the cell counting kit-8 (CCK-8) tetrazolium assay in a 96-well microplate. Five to seven concentrations of each compound in triplicate were used, and the IC50 values were determined by CompuSyn software automation (Chou T C. and Martin N. ComboSyn, Inc., 2006) based on the median-effect equation and plot (Chou T C. J. Theor. Biol. 59:235-276, 1976; Chou T C. Pharmacol. Rev. 58: 621-681, 2006). […] The r value defines the correlation coefficient of the median-effect plot which signifies the conformity to the mass-action law principle (Chou T C. J. Theor. Biol. 59:235-276, 1976; Chou T C. Pharmacol. Rev. 58:621-681, 2006). These parameters were determined by CompuSyn simulation (available at http://www.combosyn.com).
CCRF-CEM human T-cell acute lymphoblastic leukemia cells and the corresponding vinblastine-resistant cells (CCRF-CEM/VBL100) were cultured at an initial density of 5×10^4 cells per milliliter. The cultured cells were maintained in a 5% CO2-humidified atmosphere at 37° C. in RPMI medium 1640 (GIBCO/BRL) containing penicillin (100 units/mL), streptomycin (100 μg/mL, GIBCO/BRL), and 10% heat-inactivated fetal bovine serum. The cytotoxicity of each Compound of the invention was measured using the 2,3-bis(2-methoxy-4-nitro-5-sulfophenyl)-5-[(phenylamino)carbonyl]-2H-tetrazolium hydroxide (XTT) microculture method as described in Scudiero et al., Cancer Res., 48:4827 (1988), the contents of which are hereby incorporated by reference in their entirety.
Absorbance was measured by Powerwave XS microplate spectrophotometer.

[4] = Homo sapiens, IMR-32; read-out: 50% toxicity in IMR-32 cells
[5] = Homo sapiens, IMR-32, sub-head printed inside Table 13 r22; read-out: IC50 (μM) IMR-32
[6] = Homo sapiens, IMR-32, read-out: 50% toxicity in IMR-32 cells
[7] = Homo sapiens, IMR-32, read-out: Fold induction of AKR1C2 and AKR1C3 in IMR-32 cells

Fold induction of AKR1C2 and AKR1C3 in IMR-32 cells (result in words) [1]	Structure (SMILES)	pIC50 [2, 4]	other results
None	CCCCCCC[C@H]1OC(C)(C)O[C@@H]1Cc1nnn(Cc2ccccc2)c1C(O)CC (stereo partly drawn) [Compound 11]	~4.46	
	CCCCCCC[C@H]1OC(C)(C)O[C@@H]1Cc1ccc(C(O)CC)cc1 (stereo partly drawn) [drawing 248]		IC50 [3]: 4.18 µM
None	CCCCCCC[C@@H](O)[C@H](O)CC#CC#C[C@H](O)c1ccccc1		pIC50 ([2]; listed as 19; read-out: 50% toxicity in IMR-32 cells): < 4.40
	C=C[C@H](O)C#CC#CC[C@H](O)[C@@H](O)CCCCCCC [drawing 241]		IC50 [3]: 2.69 µM
None	CCCCCCC[C@H]1OC(C)(C)O[C@@H]1CC#CC#C[C@H](O)c1ccccc1 [Example 20]	~5.00	
	CCCCCCC[C@H]1OC(C)(C)O[C@@H]1Cc1c[nH]nn1 [drawing 250]		IC50 [2, 5]: 35 µM
None	C=C[C@@](C)(O)C#CC#CC[C@H]1OC(C)(C)O[C@@H]1CCCCCCC [analog 8]		
None	CCCCCCC[C@H]1OC(C)(C)O[C@@H]1Cc1ccc(C(O)CC)cc1 (stereo partly drawn) [Compound 14]	~4.40	
None	O=C1NC2(CCCCC2)C(=O)N2CCC[C@@H]12 [Compound 26]		
None	CCCCCCC[C@H]1OC(C)(C)O[C@@H]1Cc1ccc(C=O)cc1 [Compound 13]	~4.52	
None	C=C[C@H](C#CC#CC[C@H]1OC(C)(C)O[C@@H]1CCCCCCC)OC [Compound 7]		
	C=C[C@H](O)C#CC#CC[C@@H]1OC(C)(C)O[C@H]1CCCCCCC [Compound 17]	~5.30	
	CCCCCCC[C@@H](O)[C@H](O)CC#CC#C[C@H](O)c1ccccc1 [Example 24, (1R,7R,8R)-1-phenyl-2,4-pentadecadiyne-1,7,8-triol]		pEC50 ([1]; Homo sapiens): ~5.46; fold induction at 5 µM [1, 7]: 1.5; pIC50 ([2]; read-out: 50% toxicity in IMR-32 cells): ~5.10
	CCCCCCC[C@H]1OC(C)(C)O[C@@H]1CC#CC(O)CC (stereo partly drawn) [drawing 251]		IC50 [2, 5]: 25 µM
None	CCCCCCC[C@H]1OC(C)(C)O[C@@H]1CC#CC#C/C=C/CO [analog 9]		
None	CCCCCCC[C@H]1OC(C)(C)O[C@@H]1CC#CC#C/C=C/C(OC)c1ccccc1 (stereo partly drawn) [Example 25]	~4.49	
	C=C[C@@H](O)C#CC#CC[C@@H](O)[C@H](O)CCCCCCC [Compound 1]		fold induction at 20 µM [1, 7]: 2; pIC50 [2, 6]: < 4.40

Fold induction of AKR1C2 and AKR1C3 in IMR-32 cells (result in words) [1]	Structure (SMILES)	pIC50 [2, 4]	other results
	CCCCCCC[C@H]1OC(C)(C)O[C@@H]1Cc1ccc(C=O)cc1 [drawing 246]		IC50 [3]: 12.6 µM
	C=C[C@H](O)C#CC#CC[C@H]1OC(C)(C)O[C@@H]1CCCCCCC [Example 21]	~5.40	fold induction at 1 µM [1, 7]: 1.4
	CCCCCCC[C@@H](O)[C@H](O)CC#CC#C[C@H](O)c1ccccc1 [drawing 244]		IC50 [3]: 5.96 µM
	C=C[C@H](C#CC#CC[C@H]1OC(C)(C)O[C@@H]1CCCCCCC)OC(C)=O [Compound 4]	< 4.40	fold induction at 20 µM [1, 7]: 1.5
None	CCCCCCC[C@H]1OC(C)(C)O[C@@H]1CC#CC(O)CC (stereo partly drawn) [Compound 10]	~4.60	
	CCCCCCC[C@@H](O)[C@H](O)CC#CC#CCO		IC50 [3]: 5.57 µM
	C=CC(O)c1ccc(C[C@H]2OC(C)(C)O[C@@H]2CCCCCCC)cc1 (stereo partly drawn) [drawing 247]		IC50 [3]: 5.25 µM
	CCCCCCC[C@H]1OC(C)(C)O[C@@H]1Cc1nnn(Cc2ccccc2)c1C(O)CC (stereo partly drawn) [drawing 249]		IC50 [2, 5]: 35 µM
None	CCCCCCC[C@H]1OC(C)(C)O[C@@H]1CC#CC#CC(=O)CC [Compound 5]		
None	CCCCCCC[C@H]1OC(C)(C)O[C@@H]1Cc1c[nH]nn1 [Compound 12]	~4.46	
None	C=CC(O)c1ccc(C[C@H]2OC(C)(C)O[C@@H]2CCCCCCC)cc1 (stereo partly drawn) [Compound 15]	~4.40	
	CCCCCCC[C@H]1OC(C)(C)O[C@@H]1CC#CC#C[C@H](O)c1ccccc1 [drawing 245]		IC50 [3]: 2.49 µM
	CCCCCCC[C@@H](O)[C@H](O)CC#CC#CC(O)/C=C/c1ccccc1 (stereo partly drawn) [drawing 243]		IC50 [3]: 9.46 µM
None	C=C1CO[C@H]2[C@@H]3C(=O)C[C@@H](C(C)C)[C@]3(C)C[C@H]3OC(=O)C[C@@]3(C)[C@@]12O [Compound 35]	< 4.30	
None	C=CC(=O)C#CC#CC[C@H]1OC(C)(C)O[C@@H]1CCCCCCC [Compound 6]		
	C=C[C@H](O)C#CC#CC[C@H](O)[C@@H](O)CCCCCCC [Compound 16]		pEC50 ([1]; Homo sapiens): ~5.46; fold induction at 5 µM [1, 7]: 2.3; pIC50 [2, 6]: ~4.92

Structure (SMILES)	Fold induction of AKR1C2 and AKR1C3 in IMR-32 cells (result in words) [1]	pIC50 [2, 4]	other results
CC12COC3(O)C4O[C@H]5CCC1(O)C45CC(O)C32C (mixture of isomers) [Compound 33]	None		pIC50 [2, 6]: < 4.40
CCCCCCC[C@@H](O)[C@H](O)CC#CC#CC[C@H](O)[C@@H](O)CCCCCCC [analog 2]	None		pIC50 [2, 6]: ~4.60
C[C@]12COC(=O)[C@@]1(C)[C@H]1O[C@@]3(C)[C@H](O)C[C@@]24OC(=O)CC134 (stereo partly drawn) [Compound 32]	None		pIC50 [2, 6]: < 4.40
C[C@@]12COC(=O)[C@]1(C)[C@@H]1O[C@]3(C)[C@@H](O)C[C@]24OC(=O)CC134 (stereo partly drawn) [Compound 31]	None		pIC50 [2, 6]: < 4.40
CC1=C[C@@H]2OC[C@@H]3C[C@@]4(O)C[C@]3(C)[C@]2(CC1)CO4 [Compound 34]	None		pIC50 [2, 6]: < 4.40
